Test results reported in publication PMC12090182, “Repurposing of the RIPK1-Selective Benzo[1,4]oxazepin-4-one Scaffold for the Development of a Type III LIMK1/2 Inhibitor” (ACS Chemical Biology, 2025).

What was measured:
Test in all cases: scanMAX KINOMEscan (Eurofins)
Type in all cases: binding
ABL1-nonphosphorylated = ABL1-nonphosphorylated (Homo sapiens, UniProt P00519); settings: read-out: Percent Control
From the text: (§1) Supplement cb5c00097_si_002.xlsx, sheet "Table S6 (Eurofins Selectivity)" | column: Percent Control

ASK1 = ASK1 (Homo sapiens, UniProt Q99683); settings: read-out: Percent Control
From the text: as §1

BIKE = BIKE (Homo sapiens, UniProt Q9NSY1); settings: 1000 nM, read-out: Percent Control
From the text: as §1

CDK3 = CDK3 (Homo sapiens, UniProt Q00526); settings: 1000 nM, read-out: Percent Control
From the text: as §1

CDKL3 = CDKL3 (Homo sapiens, UniProt Q8IVW4); settings: read-out: Percent Control
From the text: as §1

CDKL5 = CDKL5 (Homo sapiens, UniProt O76039); settings: read-out: Percent Control
From the text: as §1

CSK = CSK (Homo sapiens, UniProt P41240); settings: 1000 nM, read-out: Percent Control
From the text: as §1

CSNK1A1 = CSNK1A1 (Homo sapiens, UniProt P48729); settings: 1000 nM, read-out: Percent Control
From the text: as §1

ERBB4 = ERBB4 (Homo sapiens, UniProt Q15303); settings: 1000 nM, read-out: Percent Control
From the text: as §1

FAK = FAK (Homo sapiens, UniProt Q05397); settings: 1000 nM, read-out: Percent Control
From the text: as §1

GRK4 = GRK4 (Homo sapiens, UniProt P32298); settings: 1000 nM, read-out: Percent Control
From the text: as §1

HPK1 = HPK1 (Homo sapiens, UniProt Q92918); settings: read-out: Percent Control
From the text: as §1

HUNK = HUNK (Homo sapiens, UniProt P57058); settings: read-out: Percent Control
From the text: as §1

IGF1R = IGF1R (Homo sapiens, UniProt P08069); settings: read-out: Percent Control
From the text: as §1

IRAK3 = IRAK3 (Homo sapiens, UniProt Q9Y616); settings: read-out: Percent Control
From the text: as §1

JNK3 = JNK3 (Homo sapiens, UniProt P53779); settings: 1000 nM, read-out: Percent Control
From the text: as §1

LATS1 = LATS1 (Homo sapiens, UniProt O95835); settings: 1000 nM, read-out: Percent Control
From the text: as §1

LYN = LYN (Homo sapiens, UniProt P07948); settings: 1000 nM, read-out: Percent Control
From the text: as §1

MAK = MAK (Homo sapiens, UniProt P20794); settings: compound concentration 100 nM; Entrez MAK; read-out: Percent Control
From the text: as §1

MARK1 = MARK1 (Homo sapiens, UniProt Q9P0L2); settings: compound concentration 100 nM; Entrez MARK1; read-out: Percent Control
From the text: as §1

PCTK2 = PCTK2 (Homo sapiens, UniProt Q00537); settings: 1000 nM, read-out: Percent Control
From the text: as §1

PIP5K1A = PIP5K1A (Homo sapiens, UniProt Q99755); settings: 1000 nM, read-out: Percent Control
From the text: as §1

PRKCD = PRKCD (Homo sapiens, UniProt Q05655); settings: compound concentration 100 nM; Entrez PRKCD; read-out: Percent Control
From the text: as §1

PRKX = PRKX (Homo sapiens, UniProt P51817); settings: 1000 nM, read-out: Percent Control
From the text: as §1

PYK2 = PYK2 (Homo sapiens, UniProt Q14289); settings: 1000 nM, read-out: Percent Control
From the text: as §1

QSK = QSK (Homo sapiens, UniProt Q9Y2K2); settings: read-out: Percent Control
From the text: as §1

[1] = target: RSK4(Kin.Dom.1-N-terminal) (Homo sapiens, UniProt Q9UK32); settings: compound concentration 100 nM; Entrez RPS6KA6; read-out: Percent Control
From the text: as §1

SRPK2 = SRPK2 (Homo sapiens, UniProt P78362); settings: compound concentration 100 nM; Entrez SRPK2; read-out: Percent Control
From the text: as §1

TRKB = TRKB (Homo sapiens, UniProt Q16620); settings: 1000 nM, read-out: Percent Control
From the text: as §1

ULK1 = ULK1 (Homo sapiens, UniProt O75385); settings: compound concentration 100 nM; Entrez ULK1; read-out: Percent Control
From the text: as §1

ULK2 = ULK2 (Homo sapiens, UniProt Q8IYT8); settings: compound concentration 100 nM; Entrez ULK2; read-out: Percent Control
From the text: as §1

VEGFR2 = VEGFR2 (Homo sapiens, UniProt P35968); settings: 1000 nM, read-out: Percent Control
From the text: as §1

WNK4 = WNK4 (Homo sapiens, UniProt Q96J92); settings: compound concentration 100 nM; Entrez WNK4; read-out: Percent Control
From the text: as §1

YSK1 = YSK1 (Homo sapiens, UniProt O00506); settings: compound concentration 100 nM; Entrez STK25; read-out: Percent Control
From the text: as §1

p38-delta = p38-delta (Homo sapiens, UniProt O15264); settings: compound concentration 100 nM; Entrez MAPK13; read-out: Percent Control
From the text: as §1

HPK1, sequence (Q92918 whole entry): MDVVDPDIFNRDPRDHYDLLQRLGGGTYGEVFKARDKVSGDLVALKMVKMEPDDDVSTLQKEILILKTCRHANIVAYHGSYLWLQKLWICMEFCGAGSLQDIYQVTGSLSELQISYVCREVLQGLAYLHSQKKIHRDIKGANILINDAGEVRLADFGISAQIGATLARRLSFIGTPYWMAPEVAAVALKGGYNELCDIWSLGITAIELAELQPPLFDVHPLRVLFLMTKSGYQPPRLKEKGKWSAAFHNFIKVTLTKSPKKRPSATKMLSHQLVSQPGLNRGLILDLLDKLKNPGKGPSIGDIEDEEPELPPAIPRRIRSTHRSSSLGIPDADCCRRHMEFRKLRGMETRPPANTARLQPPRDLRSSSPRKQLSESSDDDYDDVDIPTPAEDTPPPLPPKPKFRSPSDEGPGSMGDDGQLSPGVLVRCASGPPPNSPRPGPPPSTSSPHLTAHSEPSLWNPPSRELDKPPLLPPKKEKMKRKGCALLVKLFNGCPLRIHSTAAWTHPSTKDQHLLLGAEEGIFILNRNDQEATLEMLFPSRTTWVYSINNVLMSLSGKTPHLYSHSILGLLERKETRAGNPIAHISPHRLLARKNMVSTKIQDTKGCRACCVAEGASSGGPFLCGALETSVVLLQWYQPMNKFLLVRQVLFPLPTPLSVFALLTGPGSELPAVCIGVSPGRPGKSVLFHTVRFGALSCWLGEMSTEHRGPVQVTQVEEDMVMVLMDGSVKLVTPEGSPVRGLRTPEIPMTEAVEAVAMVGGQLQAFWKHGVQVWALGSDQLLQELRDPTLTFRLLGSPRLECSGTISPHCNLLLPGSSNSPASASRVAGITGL
IGF1R, sequence (P08069 31-1367): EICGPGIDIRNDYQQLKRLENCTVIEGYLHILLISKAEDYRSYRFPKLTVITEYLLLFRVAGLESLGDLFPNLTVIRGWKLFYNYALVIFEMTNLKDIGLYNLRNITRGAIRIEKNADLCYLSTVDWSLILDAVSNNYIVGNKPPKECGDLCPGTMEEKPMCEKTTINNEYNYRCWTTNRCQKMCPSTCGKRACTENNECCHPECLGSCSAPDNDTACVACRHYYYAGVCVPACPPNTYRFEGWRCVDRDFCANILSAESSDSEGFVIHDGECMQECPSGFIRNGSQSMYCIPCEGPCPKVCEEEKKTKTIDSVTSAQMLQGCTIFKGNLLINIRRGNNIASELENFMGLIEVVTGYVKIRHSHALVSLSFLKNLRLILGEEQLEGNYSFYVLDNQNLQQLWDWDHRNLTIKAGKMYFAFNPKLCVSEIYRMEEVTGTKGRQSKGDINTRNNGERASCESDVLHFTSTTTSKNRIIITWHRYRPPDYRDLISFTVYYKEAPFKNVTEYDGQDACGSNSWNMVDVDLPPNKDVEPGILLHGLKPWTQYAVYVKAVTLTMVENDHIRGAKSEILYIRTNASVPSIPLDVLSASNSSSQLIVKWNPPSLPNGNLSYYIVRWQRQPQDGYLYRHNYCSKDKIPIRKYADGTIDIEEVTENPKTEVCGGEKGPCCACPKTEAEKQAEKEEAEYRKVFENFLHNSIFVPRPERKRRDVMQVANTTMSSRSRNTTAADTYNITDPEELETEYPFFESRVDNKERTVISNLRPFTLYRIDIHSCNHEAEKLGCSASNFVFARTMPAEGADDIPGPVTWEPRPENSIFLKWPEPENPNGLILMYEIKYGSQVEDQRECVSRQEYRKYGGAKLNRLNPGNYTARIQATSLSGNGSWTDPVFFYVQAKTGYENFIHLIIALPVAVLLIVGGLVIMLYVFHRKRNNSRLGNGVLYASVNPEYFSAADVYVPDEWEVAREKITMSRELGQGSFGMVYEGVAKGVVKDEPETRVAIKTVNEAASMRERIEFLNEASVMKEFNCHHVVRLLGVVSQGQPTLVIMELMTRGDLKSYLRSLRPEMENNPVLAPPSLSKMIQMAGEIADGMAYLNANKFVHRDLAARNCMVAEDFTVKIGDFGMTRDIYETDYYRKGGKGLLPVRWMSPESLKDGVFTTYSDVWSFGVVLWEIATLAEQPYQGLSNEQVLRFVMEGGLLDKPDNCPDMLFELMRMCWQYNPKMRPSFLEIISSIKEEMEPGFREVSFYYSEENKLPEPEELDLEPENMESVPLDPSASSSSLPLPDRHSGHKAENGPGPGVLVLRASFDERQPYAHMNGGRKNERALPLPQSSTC
IRAK3, sequence (Q9Y616 whole entry): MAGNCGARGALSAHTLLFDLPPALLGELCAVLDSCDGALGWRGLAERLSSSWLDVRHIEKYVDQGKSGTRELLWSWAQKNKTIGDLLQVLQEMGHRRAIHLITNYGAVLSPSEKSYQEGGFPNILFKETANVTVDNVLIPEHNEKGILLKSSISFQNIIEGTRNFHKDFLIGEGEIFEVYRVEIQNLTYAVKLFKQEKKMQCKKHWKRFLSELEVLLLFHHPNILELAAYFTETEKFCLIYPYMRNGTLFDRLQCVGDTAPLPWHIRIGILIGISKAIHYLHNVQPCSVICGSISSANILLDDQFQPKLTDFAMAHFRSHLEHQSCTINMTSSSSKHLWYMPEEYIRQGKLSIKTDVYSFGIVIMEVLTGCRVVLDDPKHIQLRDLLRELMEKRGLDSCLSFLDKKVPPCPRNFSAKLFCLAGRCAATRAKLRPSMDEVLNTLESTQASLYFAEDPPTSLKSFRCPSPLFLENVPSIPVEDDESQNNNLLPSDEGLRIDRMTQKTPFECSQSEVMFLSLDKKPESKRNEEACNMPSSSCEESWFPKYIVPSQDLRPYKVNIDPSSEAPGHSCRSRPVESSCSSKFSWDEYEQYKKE
QSK, sequence (Q9Y2K2 whole entry): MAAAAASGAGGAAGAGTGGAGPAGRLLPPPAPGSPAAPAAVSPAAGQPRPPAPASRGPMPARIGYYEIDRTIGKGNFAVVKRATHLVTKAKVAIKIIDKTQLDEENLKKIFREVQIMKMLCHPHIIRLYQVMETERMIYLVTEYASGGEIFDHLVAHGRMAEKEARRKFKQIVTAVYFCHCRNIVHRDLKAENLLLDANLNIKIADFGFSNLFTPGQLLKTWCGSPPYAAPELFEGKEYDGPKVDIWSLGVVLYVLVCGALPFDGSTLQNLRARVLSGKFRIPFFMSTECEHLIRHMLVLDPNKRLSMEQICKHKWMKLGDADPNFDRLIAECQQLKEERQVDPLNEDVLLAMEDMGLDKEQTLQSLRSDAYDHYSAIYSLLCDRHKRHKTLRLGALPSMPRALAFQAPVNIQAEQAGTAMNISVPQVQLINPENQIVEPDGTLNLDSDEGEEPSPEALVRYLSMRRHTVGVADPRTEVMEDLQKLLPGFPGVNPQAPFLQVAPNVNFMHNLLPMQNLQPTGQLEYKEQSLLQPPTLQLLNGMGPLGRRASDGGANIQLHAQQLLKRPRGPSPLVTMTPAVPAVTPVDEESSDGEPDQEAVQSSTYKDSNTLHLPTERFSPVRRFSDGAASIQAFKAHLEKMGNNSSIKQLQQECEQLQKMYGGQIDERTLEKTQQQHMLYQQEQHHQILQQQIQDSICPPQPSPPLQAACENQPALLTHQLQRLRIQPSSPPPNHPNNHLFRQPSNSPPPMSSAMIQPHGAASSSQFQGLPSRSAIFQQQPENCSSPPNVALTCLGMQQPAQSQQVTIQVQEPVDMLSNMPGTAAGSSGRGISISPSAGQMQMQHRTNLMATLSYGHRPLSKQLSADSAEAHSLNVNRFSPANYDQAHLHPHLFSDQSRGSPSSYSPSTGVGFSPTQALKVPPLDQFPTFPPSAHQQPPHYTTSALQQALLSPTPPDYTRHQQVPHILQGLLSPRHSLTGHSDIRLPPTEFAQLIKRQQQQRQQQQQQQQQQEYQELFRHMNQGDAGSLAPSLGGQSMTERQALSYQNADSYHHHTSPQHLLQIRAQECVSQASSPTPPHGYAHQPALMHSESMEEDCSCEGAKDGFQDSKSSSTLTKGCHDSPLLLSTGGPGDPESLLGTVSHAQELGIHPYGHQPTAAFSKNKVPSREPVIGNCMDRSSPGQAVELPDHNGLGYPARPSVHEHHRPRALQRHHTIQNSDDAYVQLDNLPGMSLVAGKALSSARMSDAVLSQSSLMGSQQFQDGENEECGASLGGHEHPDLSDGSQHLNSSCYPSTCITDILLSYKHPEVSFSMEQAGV
HUNK, sequence (P57058 whole entry): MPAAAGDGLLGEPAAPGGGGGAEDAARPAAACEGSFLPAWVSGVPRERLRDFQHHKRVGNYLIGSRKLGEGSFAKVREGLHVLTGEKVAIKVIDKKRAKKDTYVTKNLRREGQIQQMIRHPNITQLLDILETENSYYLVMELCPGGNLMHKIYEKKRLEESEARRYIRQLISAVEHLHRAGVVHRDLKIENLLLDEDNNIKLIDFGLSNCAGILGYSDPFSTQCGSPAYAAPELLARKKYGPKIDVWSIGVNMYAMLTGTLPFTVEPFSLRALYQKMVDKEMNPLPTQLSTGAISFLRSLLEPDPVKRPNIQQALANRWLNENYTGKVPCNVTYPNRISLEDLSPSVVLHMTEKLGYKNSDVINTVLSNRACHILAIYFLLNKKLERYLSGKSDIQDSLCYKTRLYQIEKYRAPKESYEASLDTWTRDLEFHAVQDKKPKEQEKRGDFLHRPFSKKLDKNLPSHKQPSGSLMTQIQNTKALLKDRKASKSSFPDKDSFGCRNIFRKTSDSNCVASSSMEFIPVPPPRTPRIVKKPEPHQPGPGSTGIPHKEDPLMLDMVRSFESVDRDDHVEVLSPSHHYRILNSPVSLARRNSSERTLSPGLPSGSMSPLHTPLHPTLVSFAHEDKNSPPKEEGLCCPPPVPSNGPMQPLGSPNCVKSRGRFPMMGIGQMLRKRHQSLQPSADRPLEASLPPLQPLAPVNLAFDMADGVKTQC

## CN1C(=O)[C@@H](N2CCc3c(nn(Cc4ccccc4)c3C(N)=O)C2=O)COc2cc(Cl)ccc21 [Compound 10, (S)-2-benzyl-6-(8-chloro-5-methyl-4-oxo-2,3,4,5-tetrahydrobenzo[b][1,4]oxazepin-3-yl)-7-oxo-4,5,6,7-tetrahydro-2H-pyrazolo[3,4-c]pyridine-3-carboxamide]
ABL1-nonphosphorylated; 1000 nM
  remaining binding at 1 µM: 100%
ABL1-nonphosphorylated; compound concentration 100 nM, Entrez ABL1
  remaining binding at 0.1 µM: 100%
ASK1; 1000 nM
  remaining binding at 1 µM: 100%
ASK1; compound concentration 100 nM, Entrez MAP3K5
  remaining binding at 0.1 µM: 91%
BIKE
  remaining binding at 1 µM: 82%
CDK3
  remaining binding at 1 µM: 87%
CDKL3; 1000 nM
  remaining binding at 1 µM: 100%
CDKL3; compound concentration 100 nM, Entrez CDKL3
  remaining binding at 0.1 µM: 91%
CDKL5; 1000 nM
  remaining binding at 1 µM: 100%
CDKL5; compound concentration 100 nM, Entrez CDKL5
  remaining binding at 0.1 µM: 100%
CSK
  remaining binding at 1 µM: 97%
CSNK1A1
  remaining binding at 1 µM: 83%
ERBB4
  remaining binding at 1 µM: 87%
FAK
  remaining binding at 1 µM: 90%
GRK4
  remaining binding at 1 µM: 75%
HPK1; 1000 nM
  remaining binding at 1 µM: 100%
HPK1; compound concentration 100 nM, Entrez MAP4K1
  remaining binding at 0.1 µM: 99%
HUNK; 1000 nM
  remaining binding at 1 µM: 100%
HUNK; compound concentration 100 nM, Entrez HUNK
  remaining binding at 0.1 µM: 82%
IGF1R; 1000 nM
  remaining binding at 1 µM: 100%
IGF1R; compound concentration 100 nM, Entrez IGF1R
  remaining binding at 0.1 µM: 88%
IRAK3; 1000 nM
  remaining binding at 1 µM: 100%
IRAK3; compound concentration 100 nM, Entrez IRAK3
  remaining binding at 0.1 µM: 95%
JNK3
  remaining binding at 1 µM: 95%
LATS1
  remaining binding at 1 µM: 82%
LYN
  remaining binding at 1 µM: 77%
MAK
  remaining binding at 0.1 µM: 94%
MARK1
  remaining binding at 0.1 µM: 76%
PCTK2
  remaining binding at 1 µM: 90%
PIP5K1A
  remaining binding at 1 µM: 69%
PRKCD
  remaining binding at 0.1 µM: 83%
PRKX
  remaining binding at 1 µM: 78%
PYK2
  remaining binding at 1 µM: 82%
QSK; 1000 nM
  remaining binding at 1 µM: 98%
QSK; compound concentration 100 nM, Entrez KIAA0999
  remaining binding at 0.1 µM: 90%
[1]
  remaining binding at 0.1 µM: 100%
SRPK2
  remaining binding at 0.1 µM: 100%
TRKB
  remaining binding at 1 µM: 76%
ULK1
  remaining binding at 0.1 µM: 100%
ULK2
  remaining binding at 0.1 µM: 80%
VEGFR2
  remaining binding at 1 µM: 92%
WNK4
  remaining binding at 0.1 µM: 100%
YSK1
  remaining binding at 0.1 µM: 97%
p38-delta
  remaining binding at 0.1 µM: 79%
